In patent US20240228572A1 (i2o Therapeutics, Inc., priority 2020, published 2024):
pEC50: −log10 of the molar value. *1 amine or outer side, *2 acyl side, *3 side chain or, on linkers, in order; H or OH if unused. Where a SMILES comes first, the peptide text is derived from it. Bridges are numbered along the chain shown (N, C = ends). Side-chain parts run from the residue outwards. [ ]: non-standard residue; d: D form. The star is where a group is joined. C20 diacid = O=C(O)CCCCCCCCCCCCCCCCCCC(=O)*; γGlu = O=C(O)[C@H](CCC(=O)[*:2])N[*:1]; AEEA = NCCOCCOCC(=O)O; Aib = CC(C)(N)C(=O)O

What was measured:
[1] = target: T1, human GLP-1 receptor (GLP-1R) (Homo sapiens, UniProt P43220); assay: cAMP accumulation assay, CHO-K1 cells stably expressing human GLP-1R; assay type: cell-based; conditions: cAMP accumulation, mean pEC50, Table 10
T1 construct: expressed in transfected cells
T1 sequence (P43220 24-463): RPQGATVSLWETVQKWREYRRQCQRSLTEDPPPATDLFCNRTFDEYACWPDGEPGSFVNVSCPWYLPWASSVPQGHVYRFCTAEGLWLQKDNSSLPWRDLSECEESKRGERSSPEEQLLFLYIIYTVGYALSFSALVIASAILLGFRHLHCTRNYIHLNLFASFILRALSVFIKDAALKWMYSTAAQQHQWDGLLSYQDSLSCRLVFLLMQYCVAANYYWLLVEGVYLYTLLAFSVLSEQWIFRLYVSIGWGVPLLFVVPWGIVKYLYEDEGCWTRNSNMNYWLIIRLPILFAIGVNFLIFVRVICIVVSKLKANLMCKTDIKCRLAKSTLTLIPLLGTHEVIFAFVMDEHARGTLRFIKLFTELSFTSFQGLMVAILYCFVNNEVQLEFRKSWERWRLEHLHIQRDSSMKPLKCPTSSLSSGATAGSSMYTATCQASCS

[2] = target: T2, human Glucagon receptor (GCGR) (Homo sapiens, UniProt P47871); assay: cAMP accumulation assay, CHO-K1 cells expressing human GCGR; assay type: cell-based; conditions: mean pEC50, Table 10
T2 construct: A cDNA fragment encoding the full-length open reading frame of the human GCGR; expressed in transfected cells; host or cells: CHO-K1, pcDNA3.1+, Lipofectamine 2000
T2 sequence (P47871 26-477): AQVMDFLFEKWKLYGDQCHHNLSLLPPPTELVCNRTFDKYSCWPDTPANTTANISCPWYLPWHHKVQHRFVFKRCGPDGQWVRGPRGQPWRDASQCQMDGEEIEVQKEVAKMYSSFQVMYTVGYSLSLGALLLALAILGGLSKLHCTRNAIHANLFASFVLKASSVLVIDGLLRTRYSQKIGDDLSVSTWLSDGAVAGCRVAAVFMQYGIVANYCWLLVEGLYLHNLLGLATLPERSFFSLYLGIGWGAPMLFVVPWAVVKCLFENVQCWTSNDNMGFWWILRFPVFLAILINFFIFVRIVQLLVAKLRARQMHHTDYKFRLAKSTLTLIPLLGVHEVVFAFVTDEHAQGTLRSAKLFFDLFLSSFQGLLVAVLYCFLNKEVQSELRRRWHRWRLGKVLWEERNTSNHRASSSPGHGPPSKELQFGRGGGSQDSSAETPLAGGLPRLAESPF
From the text: In the presence of the non-specific cAMP/cGMP phosphodiesterase inhibitor, 3-isobutyl-1-methylxanthine (IBMX), accumulating cAMP can be measured in vitro using common detection methods. Thus, it is possible to estimate an in vitro potency (pEC50) for peptides activating each of these receptors using fit dose-response curves for cAMP accumulation.
A cDNA fragment encoding the full-length open reading frame of the cynomolgus monkey GLP-1R (Genebank accession #XM_028847603 was cloned into pcDNA3.1+ for expression in CHO-K1 cells. A cDNA fragment encoding the full-length open reading frame of the human GCGR (Genebank accession #NM_000160 was cloned into pcDNA3.1+ for expression in CHO-K1 cells. A cDNA fragment encoding the full-length open reading frame of the rat GCGR (Genebank accession #NM_12091 was cloned into pcDNA3.1+ for expression in CHO-K1 cells. A cDNA fragment encoding the full-length open reading frame of the cynomolgus monkey GCGR (Genebank accession #XM_005585255 was cloned into pcDNA3.1+ for expression in CHO-K1 cells.
On day 1, CHO-K1 cells were plated at 1.5 million cells per T75 flask in 90% F12-K media supplemented with 10% FBS. On day 3 cells were transfected with 40 mcg of each expression plasmid using Lipofectamine 2000 transfection reagent. On day 5, cells were dispensed at 1000 cells per well in white 384-well OptiPlates in 5 mcL of assay buffer consisting of 1×HBSS, 5 mM HEPES, 0.5 mM IBMX, and 0.1% casein.
Peptides were serially diluted 4-fold in assay buffer to final concentrations ranging from 1×10^−9 M to 9.5×10^−16 M. Two assay controls consisting of 50 mcM forskolin (cAMP system maximum) or assay buffer only (cAMP system minimum) were also prepared. Five microliters of each peptide-concentration, or assay control, was added to triplicate wells and incubated for thirty minutes at room temperature. During this incubation step a 4× europium labelled cAMP tracer solution and a 4× Ulight®-anti-cAMP solution (consisting of an anti-cAMP monoclonal antibody labelled with Ulight™ dye) was prepared according to the manufacturer's protocol (PerkinElmer LANCE Ultra cAMP kit). Following this incubation, 5 mcL europium labelled cAMP and 5 mcL Ulight anti-cAMP antibody was added to each well. The plate was covered to prevent evaporation and incubated for 60 minutes at room temperature in the dark. Plates were read on an Envision fluorescent plate reader (PerkinElmer).
Test values were first normalized to the system maximum and system minimum averaged values in Excel using the formula: (test value−system min average)/(system max average -system min average)*100. Normalized test values represent a baseline corrected percentage of the system maximum cAMP response induced by forskolin. Data from up to 3 replicate tests were analyzed for each peptide. Potency values were estimated using GraphPad Prism software (v7.04) by fitting data to a 4-parameter logistic curve model: Y=Bottom+(Top−Bottom)/(1+10^((LogEC50−X))). The Hill slope was constrained to 1.0. EC50 values were converted to pEC50 values using the formula: pEC50=−Log (EC50).

Question: How did the pEC50 [1] turn out when `CC(C)C[C@H](NC(=O)[C@H](Cc1ccc(O)cc1)NC(=O)[C@H](CCCCN)NC(=O)[C@H](CO)NC(=O)[C@H](Cc1ccc(O)cc1)NC(=O)[C@H](CC(=O)O)NC(=O)[C@H](CO)NC(=O)[C@@H](NC(=O)[C@H](Cc1ccccc1)NC(=O)[C@@H](NC(=O)CNC(=O)[C@H](Cc1c[nH]cn1)NC(=O)[C@H](CO)NC(=O)[C@@H](N)Cc1ccc(O)cc1)[C@@H](C)O)[C@@H](C)O)C(=O)N[C@@H](CC(=O)O)C(=O)NC(C)(C)C(=O)N[C@@H](CCCCN)C(=O)N[C@@H](Cc1ccc(O)cc1)C(=O)N[C@@H](C)C(=O)N[C@@H](CCC(N)=O)C(=O)N[C@@H](CCCCNC(=O)CC[C@H](NC(=O)CC[C@H](NC(=O)CCCCCCCCCCCCCCCCCCC(=O)O)C(=O)O)C(=O)O)C(=O)N[C@@H](Cc1ccccc1)C(=O)N[C@H](C(=O)NC(C)(C)C(=O)N[C@@H](Cc1c[nH]c2ccccc12)C(=O)N[C@@H](CC(C)C)C(=O)N[C@@H](CCC(=O)O)C(=O)N[C@@H](CC(=O)O)C(=O)N[C@@H](CCC(=O)O)C(=O)N1CCC[C@H]1C(=O)N[C@@H](CO)C(=O)N[C@@H](CO)C(=O)NCC(=O)N[C@@H](C)C(=O)N1CCC[C@H]1C(=O)N1CCC[C@H]1C(=O)N1CCC[C@H]1C(=O)N[C@@H](CO)C(=O)O)C(C)C` [Compound A14] (H-YSHGTFTSDYSKYLD[Aib]KYAQK([γGlu-γGlu-C20 diacid])FV[Aib]WLEDEPSSGAPPPS-OH; N-terminus assumed) was run?
Answer: < 9.00

Question: And the pEC50 [2]?
Answer: 11.20

Question: Which results are given for `CC(C)C[C@H](NC(=O)[C@H](Cc1ccc(O)cc1)NC(=O)[C@H](CCCCN)NC(=O)[C@H](CO)NC(=O)[C@H](Cc1ccc(O)cc1)NC(=O)[C@H](CC(=O)O)NC(=O)[C@H](CO)NC(=O)[C@@H](NC(=O)[C@H](Cc1ccccc1)NC(=O)[C@@H](NC(=O)CNC(=O)[C@H](Cc1c[nH]cn1)NC(=O)[C@H](CO)NC(=O)[C@@H](N)Cc1ccc(O)cc1)[C@@H](C)O)[C@@H](C)O)C(=O)N[C@@H](CC(=O)O)C(=O)N[C@@H](CCCCNC(=O)CC[C@H](NC(=O)CC[C@H](NC(=O)COCCOCCNC(=O)CCCCCCCCCCCCCCCCCCC(=O)O)C(=O)O)C(=O)O)C(=O)N[C@@H](CCCCN)C(=O)N[C@@H](Cc1ccc(O)cc1)C(=O)N[C@@H](C)C(=O)N[C@@H](CCC(N)=O)C(=O)N[C@@H](CCC(=O)O)C(=O)N[C@@H](Cc1ccccc1)C(=O)N[C@H](C(=O)NC(C)(C)C(=O)N[C@@H](Cc1c[nH]c2ccccc12)C(=O)N[C@@H](CC(C)C)C(=O)N[C@@H](CCC(=O)O)C(=O)N(C)[C@@H](CCC(=O)O)C(=O)N[C@@H](CCC(=O)O)C(=O)N1CCC[C@H]1C(=O)N[C@@H](CO)C(=O)N[C@@H](CO)C(=O)NCC(=O)N[C@@H](C)C(=O)N1CCC[C@H]1C(=O)N1CCC[C@H]1C(=O)N1CCC[C@H]1C(=O)N[C@@H](CO)C(=O)O)C(C)C` [Compound A18]?
Answer: pEC50 [1]: < 9.00; pEC50 [2]: 10.40

Question: How did the pEC50 [1] turn out when `CC(C)C[C@H](NC(=O)[C@H](Cc1ccc(O)cc1)NC(=O)[C@H](CCCCN)NC(=O)[C@H](CO)NC(=O)[C@H](Cc1ccc(O)cc1)NC(=O)[C@H](CC(=O)O)NC(=O)[C@H](CO)NC(=O)[C@@H](NC(=O)[C@H](Cc1ccccc1)NC(=O)[C@@H](NC(=O)CNC(=O)[C@H](Cc1c[nH]cn1)NC(=O)[C@H](CO)NC(=O)[C@@H](N)Cc1ccc(O)cc1)[C@@H](C)O)[C@@H](C)O)C(=O)N[C@@H](CC(=O)O)C(=O)N[C@@H](CCCCNC(=O)CC[C@H](NC(=O)CC[C@H](NC(=O)COCCOCCNC(=O)CCCCCCCCCCCCCCCCCCC(=O)O)C(=O)O)C(=O)O)C(=O)N[C@@H](CCCCN)C(=O)N[C@@H](Cc1ccc(O)cc1)C(=O)N[C@@H](C)C(=O)N[C@@H](CCCCN)C(=O)N[C@@H](CCC(=O)O)C(=O)N[C@@H](Cc1ccccc1)C(=O)N[C@H](C(=O)NC(C)(C)C(=O)N[C@@H](Cc1c[nH]c2ccccc12)C(=O)N[C@@H](CC(C)C)C(=O)N[C@@H](CCC(=O)O)C(=O)N[C@@H](CO)C(=O)N[C@@H](CCC(=O)O)C(=O)N1CCC[C@H]1C(=O)N[C@@H](CO)C(=O)N[C@@H](CO)C(=O)NCC(=O)N[C@@H](C)C(=O)N1CCC[C@H]1C(=O)N1CCC[C@H]1C(=O)N1CCC[C@H]1C(=O)N[C@@H](CO)C(=O)O)C(C)C` [Compound A22] (H-YSHGTFTSDYSKYLDK([γGlu-γGlu-AEEA-C20 diacid])KYAKEFV[Aib]WLESEPSSGAPPPS-OH; N-terminus assumed) was run?
Answer: < 9.00

Question: What about the pEC50 [2] of the same molecule?
Answer: 11.70

Question: Which results are given for `CC(C)C[C@H](NC(=O)[C@H](Cc1ccc(O)cc1)NC(=O)[C@H](CCCCN)NC(=O)[C@H](CO)NC(=O)[C@H](Cc1ccc(O)cc1)NC(=O)[C@H](CC(=O)O)NC(=O)[C@H](CO)NC(=O)[C@@H](NC(=O)[C@H](Cc1ccccc1)NC(=O)[C@@H](NC(=O)CNC(=O)[C@H](Cc1c[nH]cn1)NC(=O)[C@H](CO)NC(=O)[C@@H](N)Cc1ccc(O)cc1)[C@@H](C)O)[C@@H](C)O)C(=O)N[C@@H](CC(=O)O)C(=O)N[C@@H](CCCCNC(=O)CC[C@H](NC(=O)CC[C@H](NC(=O)COCCOCCNC(=O)CCCCCCCCCCCCCCCCCCC(=O)O)C(=O)O)C(=O)O)C(=O)N[C@@H](CCCCN)C(=O)N[C@@H](Cc1ccc(O)cc1)C(=O)N[C@@H](C)C(=O)N[C@@H](CCC(=O)O)C(=O)N[C@@H](CCC(=O)O)C(=O)N[C@@H](Cc1ccccc1)C(=O)N[C@H](C(=O)NC(C)(C)C(=O)N[C@@H](Cc1c[nH]c2ccccc12)C(=O)N[C@@H](CC(C)C)C(=O)N[C@@H](CCC(=O)O)C(=O)N[C@@H](CO)C(=O)N[C@@H](CCC(=O)O)C(=O)N1CCC[C@H]1C(=O)N[C@@H](CO)C(=O)N[C@@H](CO)C(=O)NCC(=O)N[C@@H](C)C(=O)N1CCC[C@H]1C(=O)N1CCC[C@H]1C(=O)N1CCC[C@H]1C(=O)N[C@@H](CO)C(=O)O)C(C)C` [Compound A23] (H-YSHGTFTSDYSKYLDK([γGlu-γGlu-AEEA-C20 diacid])KYAEEFV[Aib]WLESEPSSGAPPPS-OH)?
Answer: pEC50 [1]: < 9.00; pEC50 [2]: 11.50

Question: With `CC(C)C[C@H](NC(=O)[C@H](Cc1ccc(O)cc1)NC(=O)[C@H](CCCCN)NC(=O)[C@H](CO)NC(=O)[C@H](Cc1ccc(O)cc1)NC(=O)[C@H](CC(=O)O)NC(=O)[C@H](CO)NC(=O)[C@@H](NC(=O)[C@H](Cc1ccccc1)NC(=O)[C@@H](NC(=O)CNC(=O)[C@H](Cc1c[nH]cn1)NC(=O)[C@H](CO)NC(=O)[C@@H](N)Cc1ccc(O)cc1)[C@@H](C)O)[C@@H](C)O)C(=O)N[C@@H](CC(=O)O)C(=O)N[C@@H](CCCCNC(=O)CC[C@H](NC(=O)CC[C@H](NC(=O)COCCOCCNC(=O)CCCCCCCCCCCCCCCCCCC(=O)O)C(=O)O)C(=O)O)C(=O)N[C@@H](CCCCN)C(=O)N[C@@H](Cc1ccc(O)cc1)C(=O)N[C@@H](C)C(=O)N[C@H]1CCC(=O)NCCCC[C@@H](C(=O)N[C@@H](Cc2c[nH]c3ccccc23)C(=O)N[C@@H](CC(C)C)C(=O)N[C@@H](CCC(=O)O)C(=O)N[C@@H](CCC(=O)O)C(=O)N[C@@H](CCC(=O)O)C(=O)N2CCC[C@H]2C(=O)N[C@@H](CO)C(=O)N[C@@H](CO)C(=O)NCC(=O)N[C@@H](C)C(=O)N2CCC[C@H]2C(=O)N2CCC[C@H]2C(=O)N2CCC[C@H]2C(=O)N[C@@H](CO)C(=O)O)NC(=O)[C@H](C(C)C)NC(=O)[C@H](Cc2ccccc2)NC(=O)[C@H](CCCCN)NC1=O` [Compound A25] (H-YSHGTFTSDYSKYLDK([γGlu-γGlu-AEEA-C20 diacid])KYAEKFVKWLEEEPSSGAPPPS-OH; lactam 20-24) as the molecule, how does the pEC50 [1] read?
Answer: < 9.00

Question: What about the pEC50 [2] of the same molecule?
Answer: 11.90
